# The supplement of paper PMC10307832
# Compound: COc1cc(Nc2ncc(F)c(Nc3ccc4c(n3)NC(=O)C(C)(C)O4)n2)cc(OC)c1OC [R406] + Cc1cc(Nc2cc(N3CCN(C)CC3)nc(Sc3ccc(NC(=O)C4CC4)cc3)n2)n[nH]1 [Tozasertib] (partner 0.1 µM)
# Assay: relative viability (nuclei count vs DMSO), 5 days (fraction); higher = more cells survive
# Settings: first compound 8 µM
# Method in brief: (§1)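 Lung cancer cell lines were seeded in 1536-well plates and dosed by pin tool the next day, with either a single drug or a fixed anchor-drug dose combined with five library-drug doses (not always all listed) spaced in √10 steps. Five days later, one step fixed the cells and stained their nuclei (final 0.05% Triton X-100, 1% formaldehyde, 1 ug/ml Hoechst), and nuclei were counted on 4× images. Relative viability is the nuclei count in treated wells divided by the count in vehicle wells, and each value is the median of duplicate plates.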
row,Cell Line,relative viability
1,201T,0.523
2,NCI-H1915,0.463
3,HCC-827,0.233
4,LXF-289,0.067
5,NCI-H23,0.148
6,NCI-H650,0.599
7,CAL-12T,0.194
8,NCI-H1651,0.496
9,EPLC-272H,0.111
10,NCI-H1355,0.258
11,NCI-H3122,0.45
12,NCI-H1437,0.416

# Compound: COc1cc(Nc2ncc(F)c(Nc3ccc4c(n3)NC(=O)C(C)(C)O4)n2)cc(OC)c1OC [R406] + NC(=O)Nc1cc(-c2cccc(F)c2)sc1C(=O)N[C@H]1CCCNC1 [AZD7762] (partner 0.2 µM)
# Assay: as above
# Settings: first compound 0.08 µM
# Method in brief: as §1
row,Cell Line,relative viability
1,LOU-NH91,0.718
2,NCI-H1793,0.471
3,NCI-H2405,0.715
4,HOP-62,0.76
5,LU99A,0.317
6,BEN,0.816
7,HARA,0.272
8,HCC-78,0.571
9,NCI-H322M,0.453
10,LCLC-97TM1,0.207
11,A-427,0.832
12,NCI-H460,0.651
13,NCI-H727,0.675
14,NCI-H1734,0.58
15,NCI-H2347,0.785
16,NCI-H1395,0.427
17,201T,0.615
18,NCI-H1915,0.687
19,HCC-827,0.336
20,LXF-289,1.03
21,NCI-H23,0.215
22,NCI-H650,0.822
23,CAL-12T,0.531
24,NCI-H1651,0.432
25,EPLC-272H,0.21
26,NCI-H1355,0.799
27,NCI-H3122,1.06
28,NCI-H1437,1.04

# Same assay, conditions: first compound 0.253 µM
row,Cell Line,relative viability
1,LOU-NH91,0.769
2,NCI-H1793,0.368
3,NCI-H2405,0.869
4,HOP-62,0.813
5,LU99A,0.358
6,BEN,0.814
7,HARA,0.469
8,HCC-78,0.861
9,NCI-H322M,0.54
10,LCLC-97TM1,0.313
11,A-427,0.795
12,NCI-H460,0.829
13,NCI-H727,0.666
14,NCI-H1734,0.582
15,NCI-H2347,0.81
16,NCI-H1395,0.354
17,201T,0.685
18,NCI-H1915,0.751
19,HCC-827,0.239
20,LXF-289,1.19
21,NCI-H23,0.265
22,NCI-H650,1.16
23,CAL-12T,0.641
24,NCI-H1651,0.544
25,EPLC-272H,0.252
26,NCI-H1355,0.758
27,NCI-H3122,1.04
28,NCI-H1437,1.19

# Same assay, conditions: first compound 0.8 µM
row,Cell Line,relative viability
1,LOU-NH91,0.706
2,NCI-H1793,0.415
3,NCI-H2405,0.85
4,HOP-62,0.793
5,LU99A,0.39
6,BEN,0.796
7,HARA,0.257
8,HCC-78,0.623
9,NCI-H322M,0.588
10,LCLC-97TM1,0.327
11,A-427,0.86
12,NCI-H460,0.69
13,NCI-H727,0.535
14,NCI-H1734,0.679
15,NCI-H2347,0.776
16,NCI-H1395,0.351
17,201T,0.664
18,NCI-H1915,0.735
19,HCC-827,0.234
20,LXF-289,1.11
21,NCI-H23,0.283
22,NCI-H650,1.02
23,CAL-12T,0.695
24,NCI-H1651,0.513
25,EPLC-272H,0.337
26,NCI-H1355,0.747
27,NCI-H3122,0.969
28,NCI-H1437,1.13

# Same assay, conditions: first compound 2.53 µM
row,Cell Line,relative viability
1,LOU-NH91,0.574
2,NCI-H1793,0.283
3,NCI-H2405,0.692
4,HOP-62,0.531
5,LU99A,0.413
6,BEN,0.828
7,HARA,0.306
8,HCC-78,0.619
9,NCI-H322M,0.36
10,LCLC-97TM1,0.164
11,A-427,0.663
12,NCI-H460,0.61
13,NCI-H727,0.681
14,NCI-H1734,0.228
15,NCI-H2347,0.422
16,NCI-H1395,0.417
17,201T,0.762
18,NCI-H1915,0.614
19,HCC-827,0.176
20,LXF-289,0.88
21,NCI-H23,0.25
22,NCI-H650,0.593
23,CAL-12T,0.714
24,NCI-H1651,0.396
25,EPLC-272H,0.199
26,NCI-H1355,0.555
27,NCI-H3122,0.804
28,NCI-H1437,1.05

# Same assay, conditions: first compound 8 µM
row,Cell Line,relative viability
1,LOU-NH91,0.473
2,NCI-H1793,0.413
3,NCI-H2405,0.244
4,HOP-62,0.585
5,LU99A,0.283
6,BEN,0.523
7,HARA,0.305
8,HCC-78,0.449
9,NCI-H322M,0.423
10,LCLC-97TM1,0.219
11,A-427,0.43
12,NCI-H460,0.762
13,NCI-H727,0.747
14,NCI-H1734,0.313
15,NCI-H2347,0.529
16,NCI-H1395,0.36
17,201T,0.836
18,NCI-H1915,0.614
19,HCC-827,0.134
20,LXF-289,0.762
21,NCI-H23,0.269
22,NCI-H650,0.788
23,CAL-12T,0.637
24,NCI-H1651,0.446
25,EPLC-272H,0.15
26,NCI-H1355,0.581
27,NCI-H3122,0.924
28,NCI-H1437,1.05

# Compound: O=C(/C=C/c1cccnc1)NCCCCC1CCN(C(=O)c2ccccc2)CC1 [Daporinad] + Cc1nc(NC(=O)N2CCC[C@H]2C(N)=O)sc1-c1ccnc(C(C)(C)C(F)(F)F)c1 [Alpelisib] (partner 2 µM)
# Assay: as above
# Settings: first compound 0.0005 µM
# Method in brief: as §1
row,Cell Line,relative viability
1,LOU-NH91,0.719
2,NCI-H1793,0.745
3,NCI-H2405,0.918
4,LU99A,0.492
5,BEN,0.924
6,HARA,0.702
7,HCC-78,0.296
8,NCI-H322M,0.757
9,LCLC-97TM1,0.295
10,A-427,0.948
11,NCI-H460,0.54
12,NCI-H727,0.622
13,NCI-H1734,0.703
14,NCI-H2347,1.11
15,NCI-H1395,0.987
16,201T,0.983
17,NCI-H1915,1.04
18,HCC-827,1.04
19,LXF-289,0.977
20,NCI-H23,0.69
21,NCI-H650,1.08
22,CAL-12T,1.28
23,NCI-H1651,1.04
24,EPLC-272H,0.942
25,NCI-H1355,0.719
26,NCI-H3122,0.659
27,NCI-H1437,1

# Same assay, conditions: first compound 0.001581 µM
row,Cell Line,relative viability
1,LOU-NH91,0.795
2,NCI-H1793,0.749
3,NCI-H2405,0.939
4,HOP-62,1.3
5,LU99A,0.602
6,BEN,0.979
7,HARA,0.955
8,HCC-78,0.368
9,NCI-H322M,0.945
10,LCLC-97TM1,0.268
11,A-427,1.15
12,NCI-H460,0.64
13,NCI-H727,0.479
14,NCI-H1734,0.736
15,NCI-H2347,1.22
16,NCI-H1395,1.16
17,201T,1.05
18,NCI-H1915,1.09
19,HCC-827,1.03
20,LXF-289,1.09
21,NCI-H23,0.776
22,NCI-H650,1.24
23,CAL-12T,1.04
24,NCI-H1651,0.905
25,EPLC-272H,1.02
26,NCI-H1355,0.873
27,NCI-H3122,0.964
28,NCI-H1437,1.01

# Same assay, conditions: first compound 0.005 µM
row,Cell Line,relative viability
1,LOU-NH91,0.851
2,NCI-H1793,0.732
3,NCI-H2405,0.928
4,HOP-62,1.11
5,LU99A,0.584
6,BEN,1.08
7,HARA,0.638
8,HCC-78,0.285
9,NCI-H322M,0.85
10,LCLC-97TM1,0.248
11,A-427,1.04
12,NCI-H460,0.502
13,NCI-H727,0.619
14,NCI-H1734,0.695
15,NCI-H2347,1.02
16,NCI-H1395,1.39
17,201T,1
18,NCI-H1915,1.14
19,HCC-827,1.06
20,LXF-289,1.04
21,NCI-H23,0.782
22,NCI-H650,1.32
23,CAL-12T,0.832
24,NCI-H1651,0.895
25,EPLC-272H,0.84
26,NCI-H1355,1.02
27,NCI-H3122,0.78
28,NCI-H1437,1.03

# Same assay, conditions: first compound 0.01581 µM
row,Cell Line,relative viability
1,LOU-NH91,0.997
2,NCI-H1793,0.792
3,NCI-H2405,0.466
4,HOP-62,0.481
5,LU99A,0.574
6,BEN,1.27
7,HARA,0.176
8,HCC-78,0.425
9,NCI-H322M,0.769
10,LCLC-97TM1,0.257
11,A-427,0.852
12,NCI-H460,0.566
13,NCI-H727,0.497
14,NCI-H1734,0.582
15,NCI-H2347,1.08
16,NCI-H1395,1.31
17,201T,0.987
18,NCI-H1915,1.11
19,HCC-827,0.969
20,LXF-289,1.15
21,NCI-H23,0.416
22,NCI-H650,1.38
23,CAL-12T,0.411
24,NCI-H1651,0.923
25,EPLC-272H,1.08
26,NCI-H1355,0.856
27,NCI-H3122,0.708
28,NCI-H1437,0.936
